This passage reports EC50 results from ChEMBL document CHEMBL1130232, “Synthesis and biological evaluation of 4-(hydroxyalkyl)estradiols and related compounds” (J Med Chem, 1997).

Holding throughout (settings): mcf7
Experiment [1] has as its target T1, Estrogen receptor (Homo sapiens, UniProt Q92731+P03372). Put plainly: Induction of pS2 Gene expression in human MCF-7 cells. The class given is functional, cell-based.
Experiment [2] has as its target T1, Estrogen receptor. Description: Affinity for estrogen receptor of human MCF-7 cells. Type of experiment: cell-based.
Experiment [3] addresses T1, Estrogen receptor. Description: Affinity for estrogen receptor of human MCF-7 cells at 10e-5 M. Type of experiment: cell-based.

For `C[C@]12CC[C@@H]3c4ccc(O)c(O)c4CC[C@H]3[C@@H]1CC[C@@H]2O`, the EC50 (in general, the concentration at which the effect is half-maximal) came out at 65.4 nM in experiment [1] and 506 nM in experiment [2].
On to `C[C@]12CC[C@@H]3c4ccc(O)c(CCN)c4CC[C@H]3[C@@H]1CC[C@@H]2O`, for which the EC50 in experiment [3] came out at 2.5 µM.
For the compound `C[C@]12CC[C@@H]3c4ccc(O)c(CCO)c4CC[C@H]3[C@@H]1CC[C@@H]2O`, the figures for the EC50 in experiment [1] and in experiment [2] were 148 nM and 620 nM, respectively.
With `C[C@]12CC[C@@H]3c4ccc(O)c(CO)c4CC[C@H]3[C@@H]1CC[C@@H]2O`, the EC50 in experiment [1] was determined as 11.7 nM; in experiment [2], 364 nM.
For the compound `C[C@]12CC[C@@H]3c4ccc(O)c(CCCO)c4CC[C@H]3[C@@H]1CC[C@@H]2O`, the half-maximal effective concentration (EC50) is 2950 nM in experiment [1] and 3320 nM in experiment [2].
